Measurements: ChEMBL document CHEMBL1131669, “Synthesis of dihydroxanthone derivatives and evaluation of their inhibitory activity against acetylcholinesterase: unique structural analogs of tacrine based on the BCD-ring of arisugacin” (Bioorg Med Chem Lett, 1999)

Experiments:
Cholinesterase = Cholinesterase (Homo sapiens, UniProt P06276); assay: In vitro inhibitory activity against Butyrylcholinesterase
[1] = In vitro inhibitory activity against acetylcholinesterase

Chain of Cholinesterase (P06276 whole entry): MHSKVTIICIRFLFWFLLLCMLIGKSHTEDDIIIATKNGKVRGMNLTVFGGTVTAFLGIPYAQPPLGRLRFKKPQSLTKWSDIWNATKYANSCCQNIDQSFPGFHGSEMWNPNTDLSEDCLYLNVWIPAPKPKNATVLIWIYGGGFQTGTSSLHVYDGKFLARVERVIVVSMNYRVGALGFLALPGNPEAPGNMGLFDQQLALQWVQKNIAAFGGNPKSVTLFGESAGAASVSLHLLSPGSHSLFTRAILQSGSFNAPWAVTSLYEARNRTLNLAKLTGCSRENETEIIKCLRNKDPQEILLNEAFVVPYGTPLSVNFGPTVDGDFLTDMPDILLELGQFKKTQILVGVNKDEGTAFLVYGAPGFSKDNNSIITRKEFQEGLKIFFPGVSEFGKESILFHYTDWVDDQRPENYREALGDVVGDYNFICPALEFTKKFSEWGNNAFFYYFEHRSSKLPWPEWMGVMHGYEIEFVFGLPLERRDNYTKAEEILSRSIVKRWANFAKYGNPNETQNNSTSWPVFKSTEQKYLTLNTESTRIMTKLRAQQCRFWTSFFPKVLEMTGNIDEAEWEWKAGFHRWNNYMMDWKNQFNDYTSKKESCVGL

| SMILES | IC50 (Cholinesterase) [nM] | IC50 [1] [nM] |
| --- | --- | --- |
| CO[C@@H]1C=CC[C@@H]2Oc3ccc(Cl)cc3C(=O)[C@@]21C#N | 270 | 240 |
| N#C[C@]12C(=O)c3ccccc3OC1C1C=CC2CC1 (stereo not given in full) | > 2000 | 580 |
| COc1ccc2c(c1)C(=O)[C@]1(C#N)C(OC)C=CC[C@@H]1O2 (stereo not given in full) | 1410 | 620 |
| COC1C=CC[C@@H]2Oc3ccc(C)cc3C(=O)[C@]12C#N (stereo not given in full) | > 2000 | 790 |
| CO[C@@H]1C=CC[C@@H]2Oc3ccccc3C(=O)[C@@]21C#N | > 2000 | 1120 |
| COC1=CC2CCC1C1Oc3ccccc3C(=O)[C@]21C#N (stereo not given in full) | > 2000 | > 2000 |
| COC1CC(=O)C[C@@H]2Oc3ccccc3C(=O)[C@]12C#N (stereo not given in full) | > 2000 | 320 |
| CO[C@@H]1C=CC[C@@H]2Oc3ccc(Br)cc3C(=O)[C@@]21C#N | 730 | 1420 |
| COC1C=C(O[Si](C)(C)C(C)(C)C)C[C@@H]2Oc3ccccc3C(=O)[C@]12C#N (stereo not given in full) | 350 | > 2000 |
| CO[C@@H]1C=CC[C@@H]2Oc3ccc(F)cc3C(=O)[C@@]21C#N | > 2000 | 280 |
